Assay results published in patent US12371454B2, “Cyclic peptide compound having Kras inhibitory action” (priority 2019, dated 2025).
Starred links: 1 amine or outer side, 2 acyl side, 3 side chain; linkers in the order of their positions; H or OH if unused. Positions of bridges follow the written chain, without caps; N, C: chain ends. Non-standard residues stand in square brackets, D forms with d. Residues, ends and D or L forms follow the SMILES beside them. *: point of attachment. hPhe(3-Cl-4-CF3) = N[C@@H](CCc1ccc(C(F)(F)F)c(Cl)c1)C(=O)O; X19 = CC(C)(C)Oc1cc(CC[C@H](N[*:1])C(=O)[*:2])cc(Cl)c1Cl; Piperazinyl(4-(3-oxetanyl)) = C1OCC1N1CCN(*)CC1; NMePhe(3-Cl) = CN[C@@H](Cc1cccc(Cl)c1)C(=O)O; NMePhe(4-Me) = CN[C@@H](Cc1ccc(C)cc1)C(=O)O; hPhe(4-Cl) = N[C@@H](CCc1ccc(Cl)cc1)C(=O)O; NMedβ3hAla = C[C@H](CC(=O)[*:2])N(C)[*:1]; NMeGly(cPent) = CN[C@H](C(=O)O)C1CCCC1; X43 = O=C(CN(c1ccc(Cl)cc1)[*:1])[*:2]; NMeGly(cBu) = CN[C@H](C(=O)O)C1CCC1; NMeCha = CN[C@@H](CC1CCCCC1)C(=O)O; X2 = C=CC[C@](C)(N[*:1])C(=O)[*:2]; NMeChg = CN[C@H](C(=O)O)C1CCCCC1; NMeI = CC[C@H](C)[C@H](NC)C(=O)O; N(CH2CH2)2CF2 = FC1(F)CCN(*)CC1; NMeE = CN[C@@H](CCC(=O)O)C(=O)O; NMeD = CN[C@@H](CC(=O)O)C(=O)O; NMeL = CN[C@@H](CC(C)C)C(=O)O; NMeV = CN[C@H](C(=O)O)C(C)C; dIva = CC[C@@](C)(N)C(=O)O; Morpholide = C1CN(*)CCO1; NMeA = CN[C@@H](C)C(=O)O; NMeAib = CNC(C)(C)C(=O)O; Piperidide = C1CCN(*)CC1; Pyrrolidide = C1CCN(*)C1; Ac5c = NC1(C(=O)O)CCCC1; Aze = O=C(O)[C@@H]1CCN1; Sar = CNCC(=O)O

Legend:
[1] = system: Human pancreatic cancer cell line AsPC-1; experiment: Measurement of AsPC-1 cell growth inhibition (AsPC-1 CGI); format: cell-based; conditions: 96 h
Method in brief: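 AsPC-1 cells in 15% FBS RPMI-1640 were exposed to test compound for 96 hours at 37° C, with CellTiter-Glo as endpoint.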

[2] = biological target: T1, Kras and SOS1 (biotin-tagged human Kras loaded with GDP, His-tagged human SOS1) (Homo sapiens, UniProt P01116, G12D); experiment: Protein-protein interaction inhibition between Kras and SOS1 (KrasGl2D-SOS PPI) using AlphaScreen; format: binding; conditions: AlphaScreen; biotin-tagged human Kras loaded with GDP, His-tagged human SOS1; read-out: KRAS G12D-SOS PPI IC50
T1 construct: made in house; host or cells: E. coli (stated for Kras only)
T1 sequence (P01116 1-188 isoform P01116-2 G12D): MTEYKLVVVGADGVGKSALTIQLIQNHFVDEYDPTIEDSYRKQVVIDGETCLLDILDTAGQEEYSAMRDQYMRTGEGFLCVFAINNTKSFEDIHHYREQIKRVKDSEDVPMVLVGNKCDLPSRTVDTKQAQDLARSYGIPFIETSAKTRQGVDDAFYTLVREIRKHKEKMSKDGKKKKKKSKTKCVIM
Method in brief: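 Read-out is acceptor-bead light at 520-620 nm, arising when 680 nm-irradiated nickel donor beads pass singlet oxygen to streptavidin acceptors. The bead pair links His-tagged SOS1 with biotin-tagged, GDP-bound Kras from E. coli.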

SMILES	IC50 [1] [µM]	IC50 [2] [µM]
CC[C@H](C)[C@@H]1NC(=O)[C@H](C2CCC2)N(C)C(=O)C[C@@H](C(=O)N2CCOCC2)N(C)C(=O)[C@H](C2CCCCC2)N(C)C(=O)C2(CCCC2)NC(=O)[C@@H]2CCCN2C(=O)[C@H](CCc2ccc(C(F)(F)F)c(Cl)c2)NC(=O)CN(C)C(=O)[C@H](CC2CCCCC2)N(C)C(=O)CN(C)C(=O)CN(C)C1=O [Compound 890] ([NMeGly(cBu)]I[Sar][Sar][NMeCha][Sar][hPhe(3-Cl-4-CF3)]P[Ac5c][NMeChg][NMeD]-Morpholide; lactam N-11)	0.02 to 0.05	0.00047
CC[C@H](C)[C@@H]1NC(=O)[C@H](CC(C)C)N(C)C(=O)C[C@@H](C(=O)N2CCCC2)N(C)C(=O)[C@H](C(C)C)N(C)C(=O)C2(CCCC2)NC(=O)[C@@H]2CCCN2C(=O)[C@H](CCc2ccc(C(F)(F)F)c(Cl)c2)NC(=O)CN(C)C(=O)[C@H](CC2CCCCC2)N(C)C(=O)[C@@H]2CCN2C(=O)[C@H](C)N(C)C1=O [Compound 1656] ([NMeL]I[NMeA][Aze][NMeCha][Sar][hPhe(3-Cl-4-CF3)]P[Ac5c][NMeV][NMeD]-Pyrrolidide; lactam N-11)	0.1 to 0.5	0.0014
CC[C@H](C)[C@@H]1NC(=O)[C@H](C)N(C)C(=O)C[C@@H](C(=O)N2CCCCC2)N(C)C(=O)[C@H](C2CCC2)N(C)C(=O)C(C)(C)N(C)C(=O)CN(c2ccc(Cl)cc2)C(=O)[C@H](CCc2ccc(C(F)(F)F)c(Cl)c2)NC(=O)CN(C)C(=O)[C@H](C2CCC2)N(C)C(=O)[C@@H]2CCN2C(=O)[C@H](C)N(C)C1=O [Compound 2147] ([NMeA]I[NMeA][Aze][NMeGly(cBu)][Sar][hPhe(3-Cl-4-CF3)][X43][NMeAib][NMeGly(cBu)][NMeD]-Piperidide; lactam N-11)	> 0.5	0.008
CC[C@H](C)[C@@H]1NC(=O)[C@H](CC(C)C)N(C)C(=O)C[C@@H](C(=O)N2CCOCC2)N(C)C(=O)[C@H](C2CCCCC2)N(C)C(=O)C2(CCCC2)NC(=O)[C@@H]2CCCN2C(=O)[C@H](CCc2ccc(Cl)cc2)NC(=O)CN(C)C(=O)[C@H](CC2CCCCC2)N(C)C(=O)CN(C)C(=O)CN(C)C1=O [Compound 1941] ([NMeL]I[Sar][Sar][NMeCha][Sar][hPhe(4-Cl)]P[Ac5c][NMeChg][NMeD]-Morpholide; lactam N-11)	0.05 to 0.1	0.0015
CC[C@H](C)[C@@H]1NC(=O)[C@H](CC(C)C)N(C)C(=O)C[C@@H](C(=O)N2CCN(C3COC3)CC2)N(C)C(=O)[C@H](C(C)C)N(C)C(=O)C2(CCCC2)NC(=O)[C@@H]2CCCN2C(=O)[C@H](CCc2ccc(C(F)(F)F)c(Cl)c2)NC(=O)CN(C)C(=O)[C@H](CC2CCCCC2)N(C)C(=O)[C@@H]2CCN2C(=O)[C@H](C)N(C)C1=O [Compound 1181] ([NMeL]I[NMeA][Aze][NMeCha][Sar][hPhe(3-Cl-4-CF3)]P[Ac5c][NMeV][NMeD]-{Piperazinyl(4-(3-oxetanyl))}; lactam N-11)	0.1 to 0.5	0.006
CC[C@H](C)[C@@H]1NC(=O)[C@H](CC(C)C)N(C)C(=O)C[C@@H](C(=O)N2CCCC2)N(C)C(=O)[C@H](C2CCCC2)N(C)C(=O)C2(CCCC2)NC(=O)[C@@H]2CCCN2C(=O)[C@H](CCc2ccc(C(F)(F)F)c(Cl)c2)NC(=O)CN(C)C(=O)[C@H](Cc2ccc(C)cc2)N(C)C(=O)CN(C)C(=O)CN(C)C1=O [Compound 1761] ([NMeL]I[Sar][Sar][NMePhe(4-Me)][Sar][hPhe(3-Cl-4-CF3)]P[Ac5c][NMeGly(cPent)][NMeD]-Pyrrolidide; lactam N-11)	0.02 to 0.05	0.00041
CC[C@H](C)[C@@H]1NC(=O)[C@H](CC(C)C)N(C)C(=O)C[C@@H](C(=O)N(C)C)N(C)C(=O)[C@H]([C@@H](C)CC)N(C)C(=O)C2(CCCC2)NC(=O)[C@H](Cc2cccc(Cl)c2)N(C)C(=O)[C@H](CCc2ccc(C(F)(F)F)c(Cl)c2)NC(=O)CN(C)C(=O)[C@H](Cc2ccc(C)cc2)N(C)C(=O)[C@@H]2CCN2C(=O)[C@H](C)N(C)C1=O [Compound 783] ([NMeL]I[NMeA][Aze][NMePhe(4-Me)][Sar][hPhe(3-Cl-4-CF3)][NMePhe(3-Cl)][Ac5c][NMeI][NMeD]-NMe2; lactam N-11)	0.05 to 0.1	0.0098
CC[C@H](C)[C@@H]1NC(=O)[C@H](CC(C)C)N(C)C(=O)C[C@@H](C(=O)N(C)C)N(C)C(=O)[C@H]([C@@H](C)CC)N(C)C(=O)C2(CCCC2)NC(=O)[C@H](CC(=O)N2CCC(F)(F)CC2)N(C)C(=O)[C@H](CCc2ccc(C(F)(F)F)c(Cl)c2)NC(=O)CN(C)C(=O)[C@H](Cc2ccc(C)cc2)N(C)C(=O)[C@@H]2CCN2C(=O)[C@H](C)N(C)C1=O [Compound 1980] ([NMeL]I[NMeA][Aze][NMePhe(4-Me)][Sar][hPhe(3-Cl-4-CF3)][NMeD](N(CH2CH2)2CF2)[Ac5c][NMeI][NMeD]-NMe2; lactam N-11)	0.1 to 0.5	0.0015
CC[C@H](C)[C@@H]1NC(=O)[C@H](CC(C)C)N(C)C(=O)C[C@@H](C(=O)N(C)C)N(C)C(=O)[C@H](C2CCCC2)N(C)C(=O)C2(CCCC2)NC(=O)[C@H](CCC(=O)NC)N(C)C(=O)[C@H](CCc2ccc(C(F)(F)F)c(Cl)c2)NC(=O)CN(C)C(=O)[C@H](CC2CCCCC2)N(C)C(=O)[C@@H]2CCN2C(=O)[C@H](C)N(C)C1=O [Compound 1921] ([NMeL]I[NMeA][Aze][NMeCha][Sar][hPhe(3-Cl-4-CF3)][NMeE](NHMe)[Ac5c][NMeGly(cPent)][NMeD]-NMe2; lactam N-11)	0.1 to 0.5	0.00083
CC[C@H](C)[C@@H]1NC(=O)[C@H](CC(C)C)N(C)C(=O)C[C@@H](C(=O)N2CCCCC2)N(C)C(=O)[C@H](C(C)C)N(C)C(=O)[C@@](C)(CC)NC(=O)[C@@H]2CCCN2C(=O)[C@H](CCc2ccc(C(F)(F)F)c(Cl)c2)NC(=O)CN(C)C(=O)[C@H](CC2CCCCC2)N(C)C(=O)CN(C)C(=O)CN(C)C1=O [Compound 1130] ([NMeL]I[Sar][Sar][NMeCha][Sar][hPhe(3-Cl-4-CF3)]P[dIva][NMeV][NMeD]-Piperidide; lactam N-11)	0.1 to 0.5	0.0044
CC[C@H](C)[C@@H]1NC(=O)[C@H](CC(C)C)N(C)C(=O)C[C@@H](C)N(C)C(=O)[C@H](C(C)C)N(C)C(=O)C2(CCCC2)NC(=O)[C@@H]2CCCN2C(=O)[C@H](CCc2ccc(C(F)(F)F)c(Cl)c2)NC(=O)CN(C)C(=O)[C@H](Cc2cccc(Cl)c2)N(C)C(=O)CN(C)C(=O)CN(C)C1=O [Compound 1621] (cyclo([Ac5c][NMeV][NMedβ3hAla][NMeL]I[Sar][Sar][NMePhe(3-Cl)][Sar][hPhe(3-Cl-4-CF3)]P))	0.05 to 0.1	0.0072
C=CC[C@]1(C)NC(=O)[C@@H]2CCCN2C(=O)[C@H](CCc2ccc(C(F)(F)F)c(Cl)c2)NC(=O)CN(C)C(=O)[C@H](CC2CCCCC2)N(C)C(=O)CN(C)C(=O)CN(C)C(=O)[C@H]([C@@H](C)CC)NC(=O)[C@H](CC(C)C)N(C)C(=O)C[C@@H](C(=O)N2CCCCC2)N(C)C(=O)[C@H](C(C)C)N(C)C1=O [Compound 1109] ([NMeL]I[Sar][Sar][NMeCha][Sar][hPhe(3-Cl-4-CF3)]P[X2][NMeV][NMeD]-Piperidide; lactam N-11)	0.1 to 0.5	0.023
CC[C@H](C)[C@@H]1NC(=O)[C@H](C)N(C)C(=O)C[C@@H](C(=O)N2CCCCC2)N(C)C(=O)[C@H](C2CCCCC2)N(C)C(=O)C2(CCCC2)NC(=O)[C@@H]2CCCN2C(=O)[C@H](CCc2cc(Cl)c(Cl)c(OC(C)(C)C)c2)NC(=O)CN(C)C(=O)[C@H](CC2CCCCC2)N(C)C(=O)CN(C)C(=O)CN(C)C1=O [Compound 2082] ([NMeA]I[Sar][Sar][NMeCha][Sar][X19]P[Ac5c][NMeChg][NMeD]-Piperidide; lactam N-11)	> 0.5	0.041
